Test results reported in patent US20230380427A1 (priority 2020, published 2023).
Where two headings read alike, the source gives them in different places. Marks after values point to notes of the source that are not given here.

Legend:
[1] = tested on: F. graminearum; type: in vivo, Fusarium graminearum; details: wheat Trappe, ear treated, versus untreated half of plot
[2] = tested on: F. graminearum; type: in vivo, Fusarium graminearum; details: wheat Capo, Lennox, Trappe, Kronjet, ear treated, FHB assessed 21 days after anthesis, versus untreated control
[3] = tested on: Plasmopara viticola; test: Grapevine leaf disc assay (downy mildew, Peronospora); type: in vivo; details: grapevine leaf discs, 5 days at 23° C.; diseased disk area versus control
Description: Exemplary tests for reduction of Peronospora symptoms were carried out on grapevine leaf discs as follows. Ten leaf discs were first inoculated with prototypes for 20 min and then treated with a spore suspension (20000 sporangia/ml) of the fungus until zoospores were released from the sporangia. Afterwards, leaf disks were placed on water agar plates and incubated for 5 days at 23° C. (16 h light/8 h darkness). Consequently, disease severity was calculated by measurement of the percentage of diseased disk area. Control treatments were included by either using water or by application of the copper-based, commercially available plant protection product Cuprozin.

[4] = tested on: F. graminearum; type: in vivo, Fusarium graminearum; details: wheat Capo; versus control

Question: Which “Reduction of Symptoms (Disease incidence %)” value ([1]; listed as Calcium carbonate) does the source give for `O=C([O-])[O-].[Ca+2]` [Prototype W25, Calcium carbonate from natural resources] here?
Answer: 13%

Question: What about the “Reduction of Symptoms (Disease incidence %)” value ([1]; listed as W25) of the same compound?
Answer: 13* %

Question: With Sodium silicium oxide [Prototype W4] as the compound, how does the “Reduction of Symptoms (Disease incidence %)” value ([2]; listed as Silicium) read?
Answer: no influence

Question: What about the “Reduction of Symptoms (Disease incidence %)” value ([2]; listed as W4) of the same compound?
Answer: ns

Question: For `[Ca+2].[Cl-].[Cl-]` [Prototype G1, Calcium chloride], which “Reduction of Symptoms (Disease Severity %)” value [3] is on record?
Answer: 50.9** %

Question: How did the “Reduction of Symptoms (%) Disease incidence %” value [4] turn out when `O=C([O-])[O-].[Ca+2]` [Prototype W24, Calcium carbonate from natural resources] was run?
Answer: ns

Question: What about the “Reduction of Symptoms (%) Disease intensity %” value [4] of the same compound?
Answer: no significant effect and ns

Question: What about the “Reduction of Symptoms (%) Disease severity %” value [4] of the same compound?
Answer: ns

Question: How did the “Reduction of Symptoms (Disease incidence %)” value [2] turn out when `[Ca+2].[Cl-].[Cl-]` [Prototype W2, Calcium chloride] was run?
Answer: 29%

Question: What does the source list for `[Cl-].[Cl-].[Mg+2]` [Prototype W3, Magnesium chloride]?
Answer: Reduction of Symptoms (Disease incidence %) ([2]; listed as W3): ns; Reduction of Symptoms (Disease incidence %) ([2]; listed as magnesium): no influence
